Read-outs that look alike come from different tables or passages of the source.
Assays:
[1] = Metabolic stability in liver microsomes, human; format: in vitro ADME; details: low value = metabolically stable
Description: (§1) Also the metabolic stability in liver microsomes was tested for some compounds.

CFA-treated animals = assay: Complete Freund's Adjuvant (CFA) model of chronic inflammation; format: in vivo, Rats; details: 10 mg/kg sc, 24 hrs after drug administration
Description: Rats were treated with Complete Freund's Adjuvant (CFA). After 4 days (upon reaching stable inflammation), CFA-treated animals were treated with 10 mg/kg subcutaneously (sc) of Compound 8, incomplete Freund's Adjuvant or vehicle, respectively. Responses were measured 24 hrs after drug administration. […] Latencies, expressed in seconds (sec), were defined as the time needed for the animal to remove the treated paw from the hot surface.

[2] = Microsomal bioavailability (Table 2); format: in vitro ADME; details: read-out: Microsomal bioavailability F (%)
[3] = Initial toxicity studies, in vitro and in vivo
[4] = Non-specific binding assessment across tissue-free inserts; format: in vitro ADME; details: tissue-free insert, DPBS; for recovery at 120 min, 1 μM: tissue-free Millipore Millicell culture plate inserts; for Papp at 120 min, 1 μM: read-out: apparent permeability coefficient (Papp) through cell-free insert
Description: Non-specific binding assessment (NSB) was conducted in a tissue-free plate containing Millipore Millicell culture plate inserts that were the same ones that were used in the permeation study across the culture tissues. Each of the tested compounds was dosed at 1 μM with DPBS buffer. Sampling time for the receiver chambers was 120 minutes after dosing, while the donor sides were sampled at 0 and 120 minutes after dosing. The NSB assessments consisted of the permeation rates across tissue-free inserts and the percent recovery by calculating the mass balance of the test campounds at the end of the experiment. The recovery assessment was used to assess the non-specific binding property of the tested compounds to the assay apparatus.

ERβ [5] = target: T1, ERβ (Homo sapiens, UniProt Q92731); assay: R-SAT functional assay, ERβ; format: cell-based; parameters: expressed in transfected cells; host or cells: transient transfection
[6] = Bioavailability after intravenous, oral and sublingual administration in rat; details: in vivo, rats
Description: Similarly to the Example above, Compound 8 was also administered to rat intravenously, orally and sublingual. Also the prodrug of Compound 8, i.e. Compound 9, was administered. The bioavailability (% F) indicated for the prodrug Compound 9 is the results of measurements of the bioavailability for Compound 8, which Compound 9 is converted into upon administration. AUC 0-4 was used for calculation of the bioavailability.

[7] = Metabolic stability in liver microsomes, rat; format: in vitro ADME; details: low value = metabolically stable
Description: as §1

[8] = Unidirectional permeability across MatTek EpiOral buccal tissue; format: in vitro ADME, human
Description: EpiOral→tissues plated in 24-well plates were obtained from MatTek Corporation (Ashland, Mass., USA). The assay buffer was Dulbeccos' Phosphate Buffered Saline (DPBS) without Ca & Mg chloride, pH 7.4. Each test compound was co-dosed with the two control compounds. Targeting dosing concentrations were 10 μM for each test compound and 100 μM for the two control compounds. Prior to the permeability assay onset, the tissues were preequilibrated in a pre-warmed EpiOral assay medium for one hour at 37° C. in a 5% CO2 incubator. The EpiOral assay medium was aspirated after the pre-equilibration, and the tissues were washed twice with the DPBS buffer. The receiver chambers were filled with 0.75 mL of the DPBS buffer, while the donor chambers received 0.4 mL of the dosing solutions. The assay plates were placed at 37° C. in a 5% CO2 incubator. The receiver samples (200 μL) were collected at 30, 60, and 120 minutes, and replaced with an equal volume of fresh pre-warmed receiver buffer (except for the last time point of 120 minutes). The donor sides were sampled at 0 and 120 minutes. The test compounds were then analyzed using LC-MS/MS.

ERβ [9] = target: T1, ERβ; assay: Competitive 3H-estradiol binding assay, ERβ; parameters: expressed in transfected cells; host or cells: HEK293 cells, transient transfection
Description: Cells were then harvested by scraping in ice-cold PBS and subsequently lysed using a cold buffer containing 10 mM Tris pH 7.4, 1 mM EDTA, 1 mM DTT before being subjected to polytron twice for 10 seconds. Cytosolic extracts were isolated by centrifugation at 15000 g for 30 minutes at 4° C. Competitive binding of the test compounds or the estradiol control was performed on 20 μL extract by overnight incubation at 4° C. in a total volume of 100 μL containing 1 nM ^3H-estradiol (Perkin Elmer, Boston, Mass.). The bound fraction was separated from the unbound one by the addition of 100 μL of Dextran coated charcoal, incubated for 10 minutes and subsequent centrifugation at 1000 rpm for 10 minutes. Samples (100 μL per sample) were then analyzed by liquid scintillation. Data was then analyzed using the curve fitting software GraphPad Prism.

[10] = test system: bilateral 6-hydroxydopamine (6OHDA) lesion of the substantia nigra; assay: Bilateral 6OHDA lesion of the substantia nigra, behavioral assessment; format: in vivo, Male rats; details: for prepulse inhibition (sensorimotor gating): 6OHDA rats, once daily 7 days sc, 10 mg/kg (estradiol 100 μg/kg); for motor performance (spontaneous locomotor activity, rotorod, challenging beam) / novel object recognition (cognition): rat, in vivo; for novel object recognition (cognition): sc, 10 mg/kg
Description: Male rats received baseline assessment of weight, motor function (spontaneous locomotor behavior, rotorod performance) and sensorimotor gating (prepulse inhibition). Subjects were assigned to treatment conditions to equalize performance on all these measures. Subjects were then treated once daily for 7 days with either sesame oil vehicle, estradiol (100 μg/kg sc), Comparative substance 131 (10 mg/kg sc), Compound 8 (10 mg/kg sc), Comparative substance 623 (10 mg/kg sc) or Comparative substance 957 (10 mg/kg sc). On the second day of treatment, subjects received bilateral sham or 6OHDA lesions (8 μg in 4 μl) of the substantia nigra (A/P−5.0 mm, M/L±1.6 mm, D/V−8.2 mm) following the atlas of Paxinos and Watson (Paxinos, G., Watson, C., The Rat Brain in Stereotaxic Coordinates, Fourth Edition, New York: Academic Press, Spiral Bound, 1998). Behavioral assessments of motor function (spontaneous locomotion, rotorod and traversing a challenging beam), cognition (novel object recognition) and sensorimotor gating (prepulse inhibition) began after the final day of treatment. Following behavioral assessment, SN and striatal tissue were collected in order to determine the intactness of the nigrostriatal dopamine system.

T1 sequence (Q92731 whole entry, species assumed): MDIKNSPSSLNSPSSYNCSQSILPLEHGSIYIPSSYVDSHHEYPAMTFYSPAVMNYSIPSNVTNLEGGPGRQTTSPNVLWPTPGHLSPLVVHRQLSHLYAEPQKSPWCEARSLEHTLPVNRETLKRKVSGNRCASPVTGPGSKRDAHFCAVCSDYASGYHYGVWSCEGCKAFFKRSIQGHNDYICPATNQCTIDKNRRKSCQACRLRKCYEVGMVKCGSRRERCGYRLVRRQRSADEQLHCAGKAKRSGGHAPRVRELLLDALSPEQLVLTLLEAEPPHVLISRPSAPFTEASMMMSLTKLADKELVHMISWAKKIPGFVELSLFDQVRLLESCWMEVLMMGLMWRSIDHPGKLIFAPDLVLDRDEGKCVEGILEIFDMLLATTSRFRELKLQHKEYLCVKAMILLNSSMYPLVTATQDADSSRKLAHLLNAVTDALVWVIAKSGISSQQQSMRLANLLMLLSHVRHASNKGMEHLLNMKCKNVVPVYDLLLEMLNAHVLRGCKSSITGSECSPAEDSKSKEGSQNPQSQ

Compound | microsomal CLint [1] [µL/min/mg] | edema in the treated paw (inflammation) (CFA-treated animals) | thermal hyperalgesia, 52° C. hot plate latency (CFA-treated animals) | Microsomal bioavailability (predicted from microsomes) [2] [%] | tolerability in initial toxicity studies [3] | recovery at 120 min, 1 μM [4] [%] | Papp at 120 min, 1 μM [4] [×10⁻⁶ cm/s] | EC50 (ERβ [5]) [nM] | bioavailability ([6]; po, Compound 8 dosed orally, read-out: oral bioavailability) [%] | bioavailability ([6]; Compound 8 dosed sublingually, read-out: sublingual bioavailability) [%] | microsomal CLint [7] [µL/min/mg] | permeability classification in MatTek EpiOral buccal tissue [8] | Ki (ERβ [9]) [nM] | prepulse inhibition (sensorimotor gating) [10] | motor performance (spontaneous locomotor activity, rotorod, challenging beam) [10] | novel object recognition (cognition) [10]
Oc1ccc(C2(c3ccccc3F)CCC(F)(F)CC2)cc1 [Compound 8, 4-(4,4-Difluoro-1-(2-fluorophenyl)cyclohexyl)phenol] | 11 | inhibits hyperalgesia and inflammation | inhibits hyperalgesia | 4.2 | well tolerated | 57 | 19.8 | 1.26 | ~8 | 79 | 150 | highly permeable | 6.31 | prevented the 6OHDA-induced deficit in PPI | prevented the impairment | showed improved memory
Oc1ccc(C2(c3cccc(F)c3Cl)CCCCC2)cc1 [Compound 623] |  |  |  |  |  | 22 | 1.17 | 6.31 |  |  |  | low permeability | 6.31 | prevented the 6OHDA-induced deficit in PPI | prevented the impairment | showed improved memory
Oc1ccc(C2(c3ccccc3Cl)CCCCC2)cc1F [Compound 957] | 20 |  |  |  |  | 18 | 0.881 | 1.58 |  |  | 450 | low permeability | 15.8 | prevented the 6OHDA-induced deficit in PPI | prevented the impairment | did not reverse the cognitive deficit
